Experimental data from PubChem BioAssay AID330 (DTP/NCI, 2004).
Where “and” joins values, the source holds several entries; their conditions need not be identical. Equal values may be shown once. Toxic doses and inconclusive results are not listed. Rule for the calls: active = survival T/C of 150% or more; inactive = T/C below 125% in these data.

System: P388 leukemia ip, CD2F1 mice, survival T/C
Assay: NCI In Vivo Anticancer Drug Screen. Data for tumor model P388 Leukemia (intraperitoneal) in CD2F1 (CDF1) mice
Conditions: endpoint: median survival time, higher = longer survival
Procedure, shortened: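 Mice carrying the transplanted tumor received test compound or vehicle. Survival was recorded in each group, and the value is the treated-group measurement divided by that of the vehicle-treated control group.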

[1] = dose: 50.0 mg/kg/injection, schedule: Q01DX009 (ip), vehicle: Klucel (hydroxypropylcellulose) (HPC)
[2] = dose: 100.0 mg/kg/injection, schedule: Q01DX009 (ip), vehicle: Klucel (hydroxypropylcellulose) (HPC)
[3] = dose: 200.0 mg/kg/injection, schedule: Q01DX009 (ip), vehicle: Klucel (hydroxypropylcellulose) (HPC)
[4] = dose: 100.0 mg/kg/injection, schedule: Q01DX001 (ip), vehicle: saline with Tween-80
[5] = dose: 200.0 mg/kg/injection, schedule: Q01DX001 (ip), vehicle: saline with Tween-80
[6] = dose: 400.0 mg/kg/injection, schedule: Q01DX001 (ip), vehicle: saline with Tween-80
[7] = dose: 50.0 mg/kg/injection, schedule: Q01DX005 (ip), vehicle: Klucel (hydroxypropylcellulose) (HPC)
[8] = dose: 100.0 mg/kg/injection, schedule: Q01DX005 (ip), vehicle: Klucel (hydroxypropylcellulose) (HPC)
[9] = dose: 200.0 mg/kg/injection, schedule: Q01DX005 (ip), vehicle: Klucel (hydroxypropylcellulose) (HPC)
[10] = dose: 60.0 mg/kg/injection, schedule: Q01DX005 (ip), vehicle: saline with Tween-80
[11] = dose: 120.0 mg/kg/injection, schedule: Q01DX005 (ip), vehicle: saline with Tween-80
[12] = dose: 240.0 mg/kg/injection, schedule: Q01DX005 (ip), vehicle: saline with Tween-80
[13] = dose: 200.0 mg/kg/injection, schedule: Q01DX009 (ip), vehicle: saline

Measured: T/C

Fc1ccc(-c2cc(-c3cc(-c4ccc(F)cc4)n[nH]3)[nH]n2)cc1
inactive: dose: 60.0 mg/kg/injection, schedule: Q01DX005 (ip), vehicle: Klucel + Tween-80 91 % of control | dose: 120.0 mg/kg/injection, schedule: Q01DX005 (ip), vehicle: Klucel + Tween-80 88 % of control | dose: 240.0 mg/kg/injection, schedule: Q01DX005 (ip), vehicle: Klucel + Tween-80 88 % of control

O=c1cc(CO)[nH]cc1O
inactive: [1] 99 % of control | [2] 123 % of control | dose: 120.0 mg/kg/injection, schedule: Q01DX009 (ip), vehicle: saline with Tween-80 87 % of control | [3] 122 % of control | dose: 400.0 mg/kg/injection, schedule: Q01DX009 (ip), vehicle: saline with Tween-80 112 % of control

COc1ccc2c(OC)c(CC(=O)C(C)(C)O)c(=O)n(C)c2c1OC
inactive: dose: 19.0 mg/kg/injection, schedule: Q01DX005 (ip), vehicle: Klucel (hydroxypropylcellulose) (HPC) 96 % of control | dose: 38.0 mg/kg/injection, schedule: Q01DX005 (ip), vehicle: Klucel (hydroxypropylcellulose) (HPC) 92 % of control | dose: 76.0 mg/kg/injection, schedule: Q01DX005 (ip), vehicle: Klucel (hydroxypropylcellulose) (HPC) 88 % of control | dose: 152.0 mg/kg/injection, schedule: Q01DX005 (ip), vehicle: Klucel (hydroxypropylcellulose) (HPC) 91 % of control

CNC(=S)N/N=C/c1ccc([N+](=O)[O-])s1
inactive: dose: 6.25 mg/kg/injection, schedule: Q01DX009 (ip), vehicle: saline with Tween-80 99 % of control | dose: 12.5 mg/kg/injection, schedule: Q01DX009 (ip), vehicle: saline with Tween-80 89 % of control | dose: 25.0 mg/kg/injection, schedule: Q01DX009 (ip), vehicle: saline with Tween-80 88 % of control

Cn1c2cc([N+](=O)[O-])ccc2c(=O)c2c(O)cc(O)cc21
inactive: [4] 101 % of control | [5] 92 % of control | [6] 104 % of control

CCC1(CC2CCCN(C)C2)c2ccccc2Sc2ccccc21 (stereo not drawn)
inactive: dose: 12.5 mg/kg/injection, schedule: Q01DX005 (ip), vehicle: saline 98 % of control | dose: 25.0 mg/kg/injection, schedule: Q01DX005 (ip), vehicle: saline 98 % of control | dose: 50.0 mg/kg/injection, schedule: Q01DX005 (ip), vehicle: saline 91 % of control

CC1(C)CC(NCc2ccccc2)=CC(=S)N1
inactive: [7] 100 % of control | [8] 103 % of control | [9] 93 % of control

COc1c(OC)c([N+](=O)[O-])c2c(c1[N+](=O)[O-])COC2=O
inactive: [7] 104 % of control | [8] 103 % of control

CCc1c(NCCO)c(C(=O)NCCO)c2nc3ccccc3n2c1NCCO
inactive: [10] 101 % of control | [11] 99 % of control | [12] 99 % of control

CC(C)C(/C=C/c1ccccc1)=N\NS(=O)(=O)c1ccccc1
inactive: [4] 105 % of control | [5] 98 % of control | [6] 96 % of control

NC(CCCC(N)C(=O)c1ccccc1)C(=O)c1ccccc1 (stereo not drawn)
inactive: [10] 92 % of control | [11] 91 % of control | [12] 92 % of control

COC(=O)[C@@]12OC[C@]34[C@H]([C@@H](O)[C@@H]1O)[C@@]1(C)CC(=O)C(O)=C(C)[C@@H]1C[C@H]3OC(=O)[C@H](OC(=O)/C=C(\C)C1(C)CO1)[C@@H]24 (stereo partly drawn)
inactive: dose: 0.12 mg/kg/injection, schedule: Q01DX009 (ip), vehicle: saline + alcohol 119 % of control | dose: 0.5 mg/kg/injection, schedule: Q01DX009 (ip), vehicle: saline + alcohol 105 % of control

Cc1nc2cc(C)n3c(C)nnc3n2n1
inactive: dose: 50.0 mg/kg/injection, schedule: Q01DX005 (ip), vehicle: saline with Tween-80 105 % of control | dose: 100.0 mg/kg/injection, schedule: Q01DX005 (ip), vehicle: saline with Tween-80 100 % of control | dose: 200.0 mg/kg/injection, schedule: Q01DX005 (ip), vehicle: saline with Tween-80 100 % of control

Nc1nnc2nc(CC(=O)c3cccc([N+](=O)[O-])c3Cl)c(=O)[nH]n12
inactive: dose: 15.0 mg/kg/injection, schedule: Q01DX005 (ip), vehicle: saline with Tween-80 106 % of control | dose: 30.0 mg/kg/injection, schedule: Q01DX005 (ip), vehicle: saline with Tween-80 98 % of control | [10] 100 % of control and 103 % of control

CCN(CC)Cc1c(C)nc2cc(N(C)C)ccc2c1Cl
inactive: [10] 103 % of control

CS(=O)CCCC#N (stereo not drawn)
inactive: dose: 18.75 mg/kg/injection, schedule: Q01DX009 (ip), vehicle: saline with Tween-80 115 % of control | dose: 37.5 mg/kg/injection, schedule: Q01DX009 (ip), vehicle: saline with Tween-80 100 % of control | dose: 75.0 mg/kg/injection, schedule: Q01DX009 (ip), vehicle: saline with Tween-80 110 % of control | dose: 150.0 mg/kg/injection, schedule: Q01DX009 (ip), vehicle: saline with Tween-80 100 % of control | dose: 300.0 mg/kg/injection, schedule: Q01DX009 (ip), vehicle: saline with Tween-80 105 % of control

COc1ccc(C2COc3c(ccc(O)c3O)C2)cc1OC (stereo not drawn)
inactive: [10] 94 % of control | [11] 94 % of control | [12] 94 % of control

CC(=C\c1ccc(Cl)c(Cl)c1)/C(C)=N/NC(N)=Nc1ccccc1
inactive: dose: 25.0 mg/kg/injection, schedule: Q04DX002 (ip), vehicle: saline with Tween-80 105 % of control | dose: 50.0 mg/kg/injection, schedule: Q04DX002 (ip), vehicle: saline with Tween-80 103 % of control

O=[N+]([O-])c1ccc(C(S(=O)(=O)Cc2ccccc2)S(=O)(=O)Cc2ccccc2)cc1
inactive: [1] 93 % of control | [2] 89 % of control | [3] 90 % of control

Cc1cccc(C(O)c2cnc(C)n2Cc2ccccc2)c1 (stereo not drawn)
inactive: dose: 60.0 mg/kg/injection, schedule: Q01DX005 (ip), vehicle: Klucel (hydroxypropylcellulose) (HPC) 101 % of control | dose: 120.0 mg/kg/injection, schedule: Q01DX005 (ip), vehicle: Klucel (hydroxypropylcellulose) (HPC) 109 % of control | dose: 240.0 mg/kg/injection, schedule: Q01DX005 (ip), vehicle: Klucel (hydroxypropylcellulose) (HPC) 100 % of control

CC1(C)C(=O)CCC2(C)C1CC(=O)C1(C)C2CCC2(C)C(c3ccoc3)OC(=O)C3OC321 (stereo not drawn)
inactive: dose: 0.5 mg/kg/injection, schedule: Q01DX009 (ip), vehicle: Klucel (hydroxypropylcellulose) (HPC) 100 % of control and 102 % of control | dose: 1.0 mg/kg/injection, schedule: Q01DX009 (ip), vehicle: Klucel (hydroxypropylcellulose) (HPC) 102 % of control | dose: 2.0 mg/kg/injection, schedule: Q01DX009 (ip), vehicle: Klucel (hydroxypropylcellulose) (HPC) 92 % of control and 96 % of control | dose: 4.0 mg/kg/injection, schedule: Q01DX009 (ip), vehicle: Klucel (hydroxypropylcellulose) (HPC) 98 % of control and 93 % of control | dose: 8.0 mg/kg/injection, schedule: Q01DX009 (ip), vehicle: Klucel (hydroxypropylcellulose) (HPC) 98 % of control and 86 % of control

C/C(=N\NC(N)=O)c1ccc(Cl)c(-n2cccc2)c1
inactive: [7] 92 % of control | [8] 91 % of control | [9] 94 % of control

Nc1oc([N+](=O)[O-])cc1[N+](=O)[O-]
inactive: dose: 100.0 mg/kg/injection, schedule: Q01DX009 (ip), vehicle: saline 106 % of control | [13] 118 % of control

O=C(COc1cccc2c(=O)cc(-c3ccccc3)oc12)OCCN1CCOCC1
inactive: [7] 98 % of control | [8] 104 % of control | [9] 91 % of control

Cc1cc(C(C)(C)C)ccc1SP(Sc1ccc(C(C)(C)C)cc1C)Sc1ccc(C(C)(C)C)cc1C
inactive: [1] 100 % of control | [2] 92 % of control | [3] 92 % of control

CNC1=CC(=O)c2c(c3cc(O)ccc3n2C)C1=O
inactive: dose: 12.5 mg/kg/injection, schedule: Q01DX009 (ip), vehicle: saline 103 % of control | dose: 25.0 mg/kg/injection, schedule: Q01DX009 (ip), vehicle: saline 103 % of control | dose: 50.0 mg/kg/injection, schedule: Q01DX009 (ip), vehicle: saline 103 % of control and 87 % of control | [13] 104 % of control

C=Cc1ccc(Oc2ccccc2)cc1
inactive: dose: 25.0 mg/kg/injection, schedule: Q04DX003 (ip), vehicle: saline 100 % of control | dose: 50.0 mg/kg/injection, schedule: Q04DX003 (ip), vehicle: saline 95 % of control | dose: 100.0 mg/kg/injection, schedule: Q04DX003 (ip), vehicle: saline 109 % of control
